Measured values from ChEMBL document CHEMBL1201862, “PubChem BioAssay data set” (2004).
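Compound exposure: 48 hours, 5 concentrations, 96-well plates. At the GI50, growth is halved.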 The source made the active and inactive calls. No stated cut-off is given here; in the data, active = GI50 up to about 1.1 µM and inactive = higher.

Assays:
Assay in all cases: growth of human tumour cells (NCI), 48 h
[1] = test system: OVCAR-3
[2] = test system: SF-295
[3] = test system: SR
[4] = test system: K562
[5] = test system: HOP-62
[6] = test system: OVCAR-5
[7] = test system: TK-10
[8] = test system: SNB-75
[9] = test system: MDA-MB-435
[10] = test system: RPMI-8226
[11] = test system: SF-539
[12] = test system: SK-MEL-2
[13] = test system: SK-OV-3
[14] = test system: SK-MEL-5
[15] = test system: MOLT-4
[16] = test system: PC-3
[17] = test system: HL-60
[18] = test system: NCI-H522
[19] = test system: IGROV-1
[20] = test system: UACC-62

SMILES	GI50 [1]	GI50 [2]	GI50 [3]	GI50 [4]	GI50 [5]	GI50 [6]	GI50 [7]	GI50 [8]	GI50 [9]	GI50 [10]	GI50 [11]	GI50 [12]	GI50 [13]	GI50 [14]	GI50 [15]	GI50 [16]	GI50 [17]	GI50 [18]	GI50 [19]	GI50 [20]
CC(C)(C)c1cc(C(P(=O)(c2ccccc2)c2ccccc2)P(=O)(c2ccccc2)c2ccccc2)cc(C(C)(C)C)c1O	2.3 µM (inactive)	1.92 µM (inactive)	2.28 µM (inactive)	3.42 µM (inactive)	2.56 µM (inactive)	2.56 µM (inactive)	4.68 µM (inactive)	2.71 µM (inactive)	1.9 µM (inactive)	3.19 µM (inactive)	2.25 µM (inactive)	1.87 µM (inactive)	3.11 µM (inactive)	1.54 µM (inactive)	2.88 µM (inactive)	2.67 µM (inactive)	3.03 µM (inactive)	2.28 µM (inactive)	3.12 µM (inactive)	1.58 µM (inactive)
CCOC(=O)C(NC(=O)CC(C)C)(Nc1ccc(S(=O)(=O)Nc2nc(C)cc(C)n2)cc1)C(F)(F)F (stereo not given)	> 100 µM (inactive)	> 100 µM (inactive)	> 100 µM (inactive)	> 100 µM (inactive)	> 100 µM (inactive)	> 100 µM (inactive)	> 100 µM (inactive)	89.9 µM (inactive)	> 100 µM (inactive)	> 100 µM (inactive)	> 100 µM (inactive)	> 100 µM (inactive)	> 100 µM (inactive)	> 100 µM (inactive)	> 100 µM (inactive)	> 100 µM (inactive)	> 100 µM (inactive)	> 100 µM (inactive)	> 100 µM (inactive)	> 100 µM (inactive)
CC(=O)CCC[C@@H](C)[C@@H]1O[C@H]([C@@]2(C)CCC(=O)O2)C[C@H]2C(CSc3ccccc3)C(=O)O[C@@H]12 (stereo not given in full)	13.8 µM (inactive)	44.1 µM (inactive)	6.79 µM (inactive)	6.18 µM (inactive)	65.2 µM (inactive)	15.1 µM (inactive)	12.6 µM (inactive)	> 40.4 µM (inactive)	16.1 µM (inactive)	13.3 µM (inactive)	14.6 µM (inactive)	17.3 µM (inactive)	44.7 µM (inactive)	21.4 µM (inactive)	2.96 µM (inactive)	19 µM (inactive)	2.42 µM (inactive)	3.6 µM (inactive)	9.66 µM (inactive)	14.5 µM (inactive)
C=CCN1C(=O)/C(=C/c2ccc(Cl)cc2)N=C1SC/C=C/C	44.6 µM (inactive)	46.9 µM (inactive)	17.5 µM (inactive)	25.5 µM (inactive)	> 100 µM (inactive)	37.8 µM (inactive)	> 100 µM (inactive)	75.7 µM (inactive)	33.6 µM (inactive)	17.3 µM (inactive)	> 100 µM (inactive)	24.2 µM (inactive)	> 100 µM (inactive)	24.4 µM (inactive)	17.5 µM (inactive)	31.4 µM (inactive)	21.7 µM (inactive)	28.4 µM (inactive)	65.5 µM (inactive)	42.3 µM (inactive)
NC1=Nc2ccccc2Sc2nccn21	18.6 µM (inactive)	22.3 µM (inactive)	26.4 µM (inactive)	19.6 µM (inactive)	24.4 µM (inactive)	48.8 µM (inactive)	30.6 µM (inactive)	17.9 µM (inactive)	23.7 µM (inactive)	18.2 µM (inactive)	23.9 µM (inactive)	32.7 µM (inactive)	> 100 µM (inactive)	16.5 µM (inactive)	20.2 µM (inactive)	22.6 µM (inactive)	18.7 µM (inactive)	19.3 µM (inactive)	23.9 µM (inactive)	28.2 µM (inactive)
COc1cc(Br)cc2nc(-c3cccs3)oc12	> 100 µM (inactive)	55.7 µM (inactive)	> 100 µM (inactive)	> 100 µM (inactive)	24.5 µM (inactive)	> 100 µM (inactive)	31.8 µM (inactive)	> 51.3 µM (inactive)	> 100 µM (inactive)	> 100 µM (inactive)	75.9 µM (inactive)	> 100 µM (inactive)	> 90.6 µM (inactive)	74.1 µM (inactive)	> 100 µM (inactive)	> 100 µM (inactive)	> 100 µM (inactive)	99.8 µM (inactive)	> 43.2 µM (inactive)	> 100 µM (inactive)
C/C(=N\Nc1nc2ccccc2o1)c1ccc2ccccc2n1	0.52 µM (active)	3.72 µM (inactive)	0.579 µM (active)	3.67 µM (inactive)	4.53 µM (inactive)	2.93 µM (inactive)	6.92 µM (inactive)	11.6 µM (inactive)	6.35 µM (inactive)	2.69 µM (inactive)	7.36 µM (inactive)	1.73 µM (inactive)	23.1 µM (inactive)	3.15 µM (inactive)	1.97 µM (inactive)	1.83 µM (inactive)	2.33 µM (inactive)	1.94 µM (inactive)	0.356 µM (active)	3.8 µM (inactive)
Cn1c(=O)c2nc(CCS)[nH]c2n(C)c1=O	> 100 µM (inactive)	> 100 µM (inactive)	> 100 µM (inactive)	> 100 µM (inactive)	54.3 µM (inactive)	> 100 µM (inactive)	50.2 µM (inactive)	18.3 µM (inactive)	> 100 µM (inactive)	> 100 µM (inactive)	74.8 µM (inactive)	> 100 µM (inactive)	68.1 µM (inactive)	> 100 µM (inactive)	> 100 µM (inactive)	> 100 µM (inactive)	> 100 µM (inactive)	> 100 µM (inactive)	> 100 µM (inactive)	> 100 µM (inactive)
C=CC1C(OC2OC(CO)C(O)C(O)C2O)OC=C(C(=O)OC)C1CC1CC(=O)CC(CCc2ccc(O)cc2)O1 (stereo not given)	> 100 µM (inactive)	> 100 µM (inactive)	> 100 µM (inactive)	> 100 µM (inactive)	> 100 µM (inactive)	> 100 µM (inactive)	> 100 µM (inactive)	> 100 µM (inactive)	> 100 µM (inactive)	> 100 µM (inactive)	> 100 µM (inactive)	> 100 µM (inactive)	> 100 µM (inactive)	> 100 µM (inactive)	> 100 µM (inactive)	> 100 µM (inactive)	> 100 µM (inactive)	> 100 µM (inactive)	> 100 µM (inactive)	> 100 µM (inactive)
O=c1[nH]c2cc(Cl)ccc2nc1/C(=N/Nc1ccccc1)C(O)c1ccco1 (stereo not given)	> 100 µM (inactive)	> 100 µM (inactive)	> 100 µM (inactive)	> 100 µM (inactive)	> 100 µM (inactive)	> 100 µM (inactive)	> 100 µM (inactive)	> 100 µM (inactive)	> 100 µM (inactive)	> 100 µM (inactive)	> 100 µM (inactive)	> 100 µM (inactive)	> 100 µM (inactive)	> 100 µM (inactive)	> 100 µM (inactive)	> 100 µM (inactive)	> 100 µM (inactive)	> 100 µM (inactive)	> 100 µM (inactive)	> 100 µM (inactive)
CC(C)NC1(C(N)=O)CCN(Cc2ccccc2)CC1	> 100 µM (inactive)	> 100 µM (inactive)	> 100 µM (inactive)	> 100 µM (inactive)	> 100 µM (inactive)	> 100 µM (inactive)	> 100 µM (inactive)	> 100 µM (inactive)	> 100 µM (inactive)	> 100 µM (inactive)	> 100 µM (inactive)	> 100 µM (inactive)	> 100 µM (inactive)	> 100 µM (inactive)	> 100 µM (inactive)	> 100 µM (inactive)	> 100 µM (inactive)	> 100 µM (inactive)	> 100 µM (inactive)	> 100 µM (inactive)
O=C(CCCN1CCC2(CC1)NC(=O)c1ccccc1O2)c1ccc(F)cc1	> 100 µM (inactive)	> 100 µM (inactive)	57 µM (inactive)	39.7 µM (inactive)	> 100 µM (inactive)	87.1 µM (inactive)	81.7 µM (inactive)	> 100 µM (inactive)	> 100 µM (inactive)	76.6 µM (inactive)	> 100 µM (inactive)	> 100 µM (inactive)	> 100 µM (inactive)	44.9 µM (inactive)	50.1 µM (inactive)	73.8 µM (inactive)	85.3 µM (inactive)	> 100 µM (inactive)	> 100 µM (inactive)	> 100 µM (inactive)
C[n+]1cn(C2=C([N-]S(=O)(=O)c3ccccc3)C(=O)c3ccccc3C2=O)c2ccccc21	3.06 µM (inactive)	61.4 µM (inactive)	44.6 µM (inactive)	29.9 µM (inactive)	47.9 µM (inactive)	> 100 µM (inactive)	20.8 µM (inactive)	24.3 µM (inactive)	2.79 µM (inactive)	71.3 µM (inactive)	31.4 µM (inactive)	11.5 µM (inactive)	> 100 µM (inactive)	6.08 µM (inactive)	23.2 µM (inactive)	27.9 µM (inactive)	13 µM (inactive)	11.9 µM (inactive)	17.3 µM (inactive)	22.5 µM (inactive)
CC1(C)OCC2OC3(c4nc(C#N)c(N)o4)OC(C)(C)OC3C2O1 (stereo not given)	> 100 µM (inactive)	> 100 µM (inactive)	> 100 µM (inactive)	> 53.3 µM (inactive)	> 100 µM (inactive)	> 100 µM (inactive)	> 100 µM (inactive)	> 100 µM (inactive)	> 100 µM (inactive)	> 100 µM (inactive)	> 100 µM (inactive)	> 100 µM (inactive)	> 100 µM (inactive)	> 100 µM (inactive)	> 100 µM (inactive)	> 100 µM (inactive)	> 100 µM (inactive)	> 100 µM (inactive)	> 100 µM (inactive)	> 100 µM (inactive)
